The values below come from article PMC12567066, “Sustainable Synthesis of 1,2-Disubstituted Benzimidazoles as Promising α-Glucosidase Inhibitors: In Vitro and In Silico Evaluation” (Pharmaceuticals, 2025).

Series [1] deals with insulin-degrading enzyme (IDE). The arrangement: method as in PMID 22355395. The following applies: towards insulin and β-amyloid, cited from earlier work.
Another series concerns the target α-glucosidase (Saccharomyces cerevisiae, UniProt P53341). As to the kind of experiment: biochemical. The note with it: for inhibition at 50 µM: 0.25 h; for α-Glucosidase % inib. at 50 μM: 15 min. The procedure: The α-glucosidase assay was performed as previously described. The enzyme from Saccharomyces cerevisiae (0.125 U/mL) solution was dissolved in 0.1 M sodium phosphate buffer (pH 6.8). Twenty microliters of test samples at various concentrations (0.005–50 μM) were mixed with the enzyme solution in microplate wells and incubated for 15 min at 37 °C. Subsequently, 20 μL of […] p-nitrophenyl α-D-glucopyranoside (pNPG) solution in 0.1 M phosphate buffer was added. After incubation at 37 °C for 15 min, the reaction was terminated by adding 50 μL of 0.2 M sodium carbonate solution. α-Glucosidase activity was determined spectrophotometrically at 405 nm on a 96-well microplate reader Fluostar (BMG LABTECH GmbH, Offenburg, Germany) by measuring the amount of p-nitrophenol released. DMSO control was used whenever required and the final concentration of DMSO was maintained below 8% v/v, which was found not to affect the enzyme activity. The IC50 values were determined by the interpolation of dose–response curves (Figure S2, Supplementary Material).
(§1) The percentage of inhibition of enzyme activity, for both enzymes, was calculated as (%) by the following equation: A−B/A × 100, where A represents the difference in the absorbance of the control sample between an incubation time of 0 and 1.0 min, and B represents the test sample’s absorbance difference in the same time range.

For a further series, the system named is Caco-2 cells. As to the kind of experiment: Cell viability MTT assay. Type of series: cell-based, human. The note with it: 1–30 μM, 24 h. The procedure: Cells were treated with different concentrations of the compounds (1–30 μM) for 24 h and examined using the MTT assay.
The cellular cytotoxicity of compounds was investigated using a 3-(4,5-dimethylthiazol-2-yl)-2,5-diphenyl-tetrazolium bromide (MTT) assay as previously reported, with minor modifications. The CaCo-2 were exposed for 24 h to compounds at concentrations ranging from […]. Then, MTT reagent (0.5 mg/mL in DMEM) was added to each well. The plate was incubated for 3 h at 37 °C. The MTT solution was removed from the culture plate, and 100 μL of DMSO solvent was added to solubilize the water-insoluble formazan crystals formed in the cells. The absorbance was determined at 570 nm using a microplate reader (VANTAstar_BMG LABTECH GmbH, Ortenberg, Germany).
(Tetrazolium assays rely on reduction of a dye to a coloured formazan, in cell work by metabolically active cells.)

Series [2] can be described thus: DPPH radical scavenging assay. The note with it: mean ± SD, three independent experiments. Here is the method:
Radical scavenging activity of the better derivatives was estimated according to the previously reported method with slight modification using the stable DPPH radical.
A solution of 0.1 mM DPPH• radical was added to various concentrations of compounds. The reaction mixture was incubated in the dark for 15 min and, thereafter, the absorbance was recorded at 517 nm (VANTAstar_BMG LABTECH GmbH, Germany). The decrease in absorbance of DPPH•, after addition of test compounds compared to the control, was used to calculate the antioxidant activity.
(§2) For each assay, the decrease in absorbance was used to calculate the antioxidant activity, which was expressed as the ability of the antioxidants to scavenge 50% of radical (EC50).
In general terms: The DPPH test is a chemical assay of radical scavenging.

The nature of series [3]: ABTS radical scavenging assay. The note with it: mean ± SD, three independent experiments. The procedure: This method is based on the capacity of an antioxidant to scavenge the free radical ABTS^+ [50].
Samples of each compound (5 μL) were added to 245 μL of ABTS solution. The reduction in the blue-green radical ABTS^+ by hydrogen-donating antioxidants was evaluated by measuring the absorbance at 734 nm (VANTAstar_BMG LABTECH GmbH, Ortenberg, Germany), after one minute of incubation. All the measurements were carried out at least three times.
as §2

Series [4] deals with T1, α-amylase from porcine pancreas (Sus scrofa, UniProt P00690).
T1 construct: 40 μL of α-amylase from porcine pancreas (1 mg/mL) was used; from tissue; host or cells: porcine pancreas
T1 sequence (P00690 16-511): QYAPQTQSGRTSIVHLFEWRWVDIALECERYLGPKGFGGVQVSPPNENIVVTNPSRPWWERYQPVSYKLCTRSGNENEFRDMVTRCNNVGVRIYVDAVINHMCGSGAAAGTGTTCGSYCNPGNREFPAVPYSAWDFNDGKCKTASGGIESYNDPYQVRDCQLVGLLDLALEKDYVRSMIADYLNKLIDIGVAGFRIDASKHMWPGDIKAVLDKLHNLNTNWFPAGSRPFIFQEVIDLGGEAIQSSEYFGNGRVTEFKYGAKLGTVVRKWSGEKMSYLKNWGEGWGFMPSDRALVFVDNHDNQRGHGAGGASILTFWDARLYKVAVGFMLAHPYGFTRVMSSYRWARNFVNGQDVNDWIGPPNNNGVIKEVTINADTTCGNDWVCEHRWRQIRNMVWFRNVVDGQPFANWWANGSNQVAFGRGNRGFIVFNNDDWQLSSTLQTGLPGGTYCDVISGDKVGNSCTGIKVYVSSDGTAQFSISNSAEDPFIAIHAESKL
The series is described as follows: α-amylase inhibition assay (CNPG3 substrate). Type of series: biochemical. The note with it: 10 min, pH 7, mean ± SD, three independent assays, read-out: α-Amylase % inib. at 50 μM. The procedure:
The α-amylase assay was conducted as described in previous studies. A reaction mix containing 60 μL of […] sodium phosphate buffer at pH 7.0, 20 μL of 1 M NaCl and 40 μL of α-amylase from porcine pancreas (1 mg/mL) was used. The solution was incubated in the absence or presence of compounds at 37 °C for 10 min. After incubation, 80 μL of a 2.5 μM 2-chloro-4-nitrophenyl α-D-maltotrioside (CNPG3) solution was added as the substrate and 2-chloro-nitrophenol released by the enzymatic hydrolysis was monitored at 405 nm, using a microplate reader (Fluostar BMG LABTECH GmbH, Offenburg, Germany). The results of all the assays described above were expressed as a percentage of the blank control.
as §1

For a further series, the system named is hPreP. The arrangement: method as in PMID 24602793. The note with it: cited from earlier work.
Another series concerns V. cholerae. The note with it: cited from earlier work.
The next series relates to B. cereus. The arrangement: method as in PMID 22047695. The note with it: cited from earlier work.
The test system of a further series is S. dysenteriae. The note with it: cited from earlier work.
The mark [5] stands for this setting: mean ± SD, three independent assays, read-out: α-Glucosidase IC50.
Where [6] appears, read: pH 6.8, 50 μM, mean ± SD, three independent assays, read-out: α-Glucosidase % inib. at 50 μM.
The mark [7] stands for this setting: 50 μM, mean ± SD, three independent assays.

Entries after “also recorded” stand apart in the source; their conditions may differ. Where two headings read alike, the source gives them in different places.

α-glucosidase, sequence (P53341 whole entry): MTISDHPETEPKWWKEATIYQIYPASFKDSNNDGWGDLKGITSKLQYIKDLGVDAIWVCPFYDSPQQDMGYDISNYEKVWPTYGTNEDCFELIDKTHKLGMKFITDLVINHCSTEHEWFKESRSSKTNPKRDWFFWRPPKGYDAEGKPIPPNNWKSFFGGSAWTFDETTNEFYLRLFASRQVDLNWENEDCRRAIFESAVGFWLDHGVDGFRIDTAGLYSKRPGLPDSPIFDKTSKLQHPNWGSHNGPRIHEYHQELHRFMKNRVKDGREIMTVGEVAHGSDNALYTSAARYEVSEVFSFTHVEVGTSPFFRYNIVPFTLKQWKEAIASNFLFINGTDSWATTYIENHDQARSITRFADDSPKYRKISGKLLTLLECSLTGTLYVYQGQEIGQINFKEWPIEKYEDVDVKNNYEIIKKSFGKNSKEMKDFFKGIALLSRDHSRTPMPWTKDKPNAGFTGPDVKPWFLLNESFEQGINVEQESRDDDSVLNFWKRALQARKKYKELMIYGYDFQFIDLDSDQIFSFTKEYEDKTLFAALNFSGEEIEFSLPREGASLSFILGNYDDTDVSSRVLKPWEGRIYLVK

For `O=[N+]([O-])c1cc(Cn2c(-c3ccc(Cl)c([N+](=O)[O-])c3)nc3ccccc32)ccc1Cl` [3k, 1-(4-Chloro-3-nitrobenzyl)-2-(4-chloro-3-nitrophenyl)-1H-benzo[d]imidazole], the entries for the “Effect on IDE activity” value in series [1] and in [1] (listed as IV) were “actively stimulate IDE activity” and “improves the activity of insulin-degrading enzyme (IDE)”, respectively.
`Cc1cccc2c1nc(-c1ccc(Cl)c([N+](=O)[O-])c1)n2Cc1ccc(Cl)c([N+](=O)[O-])c1` [8k, 1-(4-Chloro-3-nitrobenzyl)-2-(4-chloro-3-nitrophenyl)-4-methyl-1H-benzo[d]imidazole]: the IC50 against α-glucosidase came out at 7.1 µM. In addition, at α-glucosidase (pH 6.8, read-out: α-Glucosidase % inib. at 50 μM), the inhibition at 50 µM turned out to be 71.2%. In the series with Caco-2 cells, the “Cytotoxicity / effect on Caco-2 cell viability” value (shortened to “Cytotoxicity / effect”) is reported as “none of these compounds affected Caco-2 cell viability; also recorded: no cytotoxic effects”. For the same molecule, the “DPPH EC50” value in series [2] is “no detectable antioxidant activity”. The “ABTS EC50” value in [3] is listed as “no detectable antioxidant activity”.
On to `Cc1cccc2c1nc(-c1cc(O)ccc1O)n2Cc1cc(O)ccc1O` [8r, 2-(1-(2,5-Dihydroxybenzyl)-4-methyl-1H-benzo[d]imidazol-2-yl)benzene-1,4-diol], for which, on α-glucosidase (setting [5]), the 50% inhibitory concentration (IC50) stood at 13.8 ± 2.7 µM. The “Cytotoxicity / effect” value in the series on Caco-2 cells was “none of these compounds affected Caco-2 cell viability; also recorded: no cytotoxic effects”. Further, the EC50 in series [2] is 11.4 ± 1.2 µM; in [3] it was 13 ± 0.2 µM.
Turning to `Cc1cccc2c1nc(-c1cc(O)c(O)c(O)c1)n2Cc1cc(O)c(O)c(O)c1` [8s, 5-(4-Methyl-1-(3,4,5-trihydroxybenzyl)-1H-benzo[d]imidazol-2-yl)benzene-1,2,3-triol], the inhibition at 50 µM at α-glucosidase (setting [6]) was found to be 97.5%. For the same molecule, the IC50 on α-glucosidase (setting [5]) came to 0.39 ± 0.04 µM. Also, the “Cytotoxicity / effect” value with Caco-2 cells is “none of these compounds affected Caco-2 cell viability; also recorded: no cytotoxic effects”. Moreover, the concentration for a half-maximal effect (EC50) in [2] came out at 7.4 ± 0.2 µM; in [3], 4.6 ± 0.2 µM.
On to `O=[N+]([O-])c1cc(Cn2c(-c3ccc(Cl)c([N+](=O)[O-])c3)nc3ccccc32)ccc1Cl` [C00031], for which the inhibition at 50 µM at α-glucosidase (setting [6]) came out at 9.2 ± 1.6%; in series [4] it was 10.2 ± 6.41%.
With `Cc1cccc2c1nc(-c1ccc(Cl)c([N+](=O)[O-])c1)n2Cc1ccc(Cl)c([N+](=O)[O-])c1` [C00032], the “α-Glucosidase % inib. at 50 μM” value at α-glucosidase (setting [7]) came to 71.2 ± 11.4%. Moreover, the inhibition at 50 µM in series [4] stood at 14 ± 0.15%.
Turning to `O=[N+]([O-])c1cc(Cn2c(-c3ccc(Cl)c([N+](=O)[O-])c3)nc3cc(Cl)ccc32)ccc1Cl` [C00033], the inhibition at 50 µM on α-glucosidase (setting [6]) was found to be 17.3 ± 0.4%; in [4] it was 15.8 ± 0.5%.
For `COc1ccccc1Cn1c(-c2ccccc2OC)nc2c(C)cccc21` [C00034], the inhibition at 50 µM came to 35.3 ± 6.8% at α-glucosidase (setting [6]) and 3.2 ± 2.3% in series [4].
For `Cc1cccc2c1nc(-c1ccc(O)c([N+](=O)[O-])c1)n2Cc1ccc(O)c([N+](=O)[O-])c1` [C00035], the inhibition at 50 µM on α-glucosidase (setting [6]) is 3.7 ± 1.4%; in series [4], 4.3 ± 2.1%.
For `Cc1cccc2c1nc(-c1ccc(Br)c(Br)c1)n2Cc1ccc(Br)c(Br)c1` [C00036], the inhibition at 50 µM was 38.2 ± 7.4% at α-glucosidase (setting [6]) and 35.7 ± 3% in series [4].
For `Cc1cccc2c1nc(-c1cc(O)ccc1O)n2Cc1cc(O)ccc1O` [C00037], the inhibition at 50 µM was found to be 94.2 ± 2.8% at α-glucosidase (setting [6]) and 1.3 ± 0.3% in series [4].
As for `Cc1cccc2c1nc(-c1cc(O)c(O)c(O)c1)n2Cc1cc(O)c(O)c(O)c1` [C00038], the “α-Glucosidase % inib. at 50 μM” value at α-glucosidase (setting [7]) was found to be 97.5 ± 0.5%.
As for `Cc1cccc2c1nc(-c1ccc(Cl)c([N+](=O)[O-])c1)n2Cc1ccc(Cl)c([N+](=O)[O-])c1` [C00039], on α-glucosidase (read-out: α-Glucosidase IC50, mean ± SD, three independent assays), the half-maximal inhibitory concentration (IC50) is 7.1 ± 2.1 µM.
Turning to `Cc1cccc2c1nc(-c1cc(O)c(O)c(O)c1)n2Cc1cc(O)c(O)c(O)c1` [C00041], the IC50 on α-glucosidase (setting [5]) is 0.39 ± 0.04 µM.
For `O=[N+]([O-])c1ccc2c(c1)nc(-c1cc(Br)ccc1O)n2Cc1cc(Br)ccc1O` [III], the hPreP agonism entry in the series with hPreP was “potent hPreP agonist”.
In the case of `Oc1ccc(Br)cc1Cn1c(-c2cc(Br)ccc2O)nc2ccccc21` [II], the Antibacterial activity entry in the series with V. cholerae, in the series on B. cereus and in the series with S. dysenteriae was “particularly active” each time.
Turning to `c1ccc(Cn2c(-c3ccccc3)nc3ccccc32)cc1` [I], the Antibacterial activity entry in the series on V. cholerae, in the series on B. cereus and with S. dysenteriae was “particularly active” each time.
Turning to `Cc1c(C)c2c(c(C)c1O)CCC(C)(C(=O)O)O2` (stereo not drawn) [Trolox, reference compound], the EC50 was determined as 25.3 ± 0.9 µM in [2] and 24.4 ± 0.2 µM in series [3].

The term IC50 denotes the midpoint of a concentration-inhibition curve. As a reminder, the EC50 is the concentration that produces a half-maximal response. Read a high EC50 as a less potent agent.
